From the CheMixHub viscosity set
± gives the uncertainty stated by the source.

Assay: xn = mol fraction of the nth substance listed

CCCOC(=O)CC + c1ccccc1
298.15 K, 101.33 kPa
Conditions	viscosity [mPa·s]
x1 = 0.1478	0.583 ± 0.01
x1 = 0.2542	0.583 ± 0.01
x1 = 0.3452	0.586 ± 0.01
x1 = 0.4049	0.588 ± 0.01
x1 = 0.616	0.604 ± 0.011
x1 = 0.7421	0.616 ± 0.011
x1 = 0.8096	0.622 ± 0.011
x1 = 0.878	0.63 ± 0.011
x1 = 0.9369	0.635 ± 0.011

Nc1cccc(Cl)c1 + CC(C)(C)O
viscosity [mPa·s], 101 kPa
Conditions	x1 = 0.0912	x1 = 0.1842	x1 = 0.279	x1 = 0.3758	x1 = 0.4745	x1 = 0.5753	x1 = 0.6782	x1 = 0.7832	x1 = 0.8904
303.15 K	3.097 ± 0.28	3.238 ± 0.29	3.382 ± 0.3	3.525 ± 0.31	3.659 ± 0.32	3.784 ± 0.33	3.901 ± 0.34	4.013 ± 0.35	4.127 ± 0.36
308.15 K	2.819 ± 0.25	2.953 ± 0.26	3.085 ± 0.28	3.213 ± 0.29	3.333 ± 0.3	3.445 ± 0.31	3.546 ± 0.31	3.644 ± 0.32	3.742 ± 0.33
313.15 K	2.283 ± 0.21	2.423 ± 0.22	2.562 ± 0.23	2.697 ± 0.24	2.828 ± 0.25	2.954 ± 0.26	3.075 ± 0.27	3.192 ± 0.28	3.308 ± 0.29
318.15 K	1.875 ± 0.17	2.015 ± 0.19	2.153 ± 0.2	2.289 ± 0.21	2.419 ± 0.22	2.544 ± 0.23	2.665 ± 0.24	2.781 ± 0.25	2.899 ± 0.26

CCC(=O)O + NC=O
viscosity [mPa·s]
Conditions	298.15 K	303.15 K	308.15 K	313.15 K
101 kPa, x2 = 0.1002	2.15 ± 0.07	–	–	1.52 ± 0.039
101 kPa, x2 = 0.1949	3.368 ± 0.14	–	–	2.231 ± 0.076
101 kPa, x2 = 0.2992	4.445 ± 0.21	–	–	2.877 ± 0.11
101 kPa, x2 = 0.3979	5.67 ± 0.3	–	–	3.546 ± 0.15
101 kPa, x2 = 0.4976	6.48 ± 0.36	–	–	4.16 ± 0.2
101 kPa, x2 = 0.5987	6.98 ± 0.4	–	–	4.528 ± 0.22
101 kPa, x2 = 0.7338	7.19 ± 0.42	–	–	4.708 ± 0.23
101 kPa, x2 = 0.8115	6.92 ± 0.4	–	–	4.48 ± 0.22
101 kPa, x2 = 0.9101	5.59 ± 0.3	–	–	3.551 ± 0.15
101 kPa, x2 = 0.976	3.838 ± 0.28	–	–	–
101.33 kPa, x2 = 0.0769	1.4 ± 0.07	1.28 ± 0.06	1.19 ± 0.06	1.09 ± 0.06
101.33 kPa, x2 = 0.1507	1.89 ± 0.1	1.7 ± 0.09	1.57 ± 0.08	1.46 ± 0.07
101.33 kPa, x2 = 0.2323	2.54 ± 0.13	2.25 ± 0.11	2.05 ± 0.1	1.89 ± 0.1
101.33 kPa, x2 = 0.3109	3.21 ± 0.16	2.78 ± 0.14	2.5 ± 0.13	2.27 ± 0.11
101.33 kPa, x2 = 0.393	3.83 ± 0.19	3.28 ± 0.17	2.94 ± 0.15	2.64 ± 0.13
101.33 kPa, x2 = 0.4098	3.92 ± 0.2	3.37 ± 0.17	3.01 ± 0.15	2.69 ± 0.14
101.33 kPa, x2 = 0.4649	4.24 ± 0.21	3.62 ± 0.18	3.23 ± 0.16	2.89 ± 0.15
101.33 kPa, x2 = 0.5404	4.48 ± 0.23	3.83 ± 0.19	3.41 ± 0.17	3.03 ± 0.15
101.33 kPa, x2 = 0.6138	4.8 ± 0.24	4.06 ± 0.2	3.6 ± 0.18	3.2 ± 0.16
101.33 kPa, x2 = 0.6916	4.7 ± 0.24	4.01 ± 0.2	3.57 ± 0.18	3.18 ± 0.16
101.33 kPa, x2 = 0.7633	4.49 ± 0.23	3.84 ± 0.19	3.43 ± 0.17	3.07 ± 0.15
101.33 kPa, x2 = 0.8461	4.22 ± 0.21	3.63 ± 0.18	3.26 ± 0.16	2.93 ± 0.15
101.33 kPa, x2 = 0.9226	3.75 ± 0.19	3.25 ± 0.16	2.94 ± 0.15	2.66 ± 0.13

CCC(=O)O + CCCCN(CCCC)CCCC
viscosity [mPa·s], 101.33 kPa
Conditions	x1 = 0.1	x1 = 0.2	x1 = 0.3	x1 = 0.4	x1 = 0.5	x1 = 0.6	x1 = 0.7	x1 = 0.8	x1 = 0.9
293.15 K	1.867 ± 0.029	–	–	–	6.422 ± 0.12	12.71 ± 0.22	26.1 ± 0.17	23.66 ± 0.14	6.57 ± 0.05
298.15 K	1.389 ± 0.018	1.676 ± 0.026	2.303 ± 0.05	3.571 ± 0.055	5.447 ± 0.057	10.24 ± 0.12	20.63 ± 0.23	19.13 ± 0.2	5.91 ± 0.05
303.15 K	1.228 ± 0.013	1.495 ± 0.015	1.923 ± 0.02	3.107 ± 0.031	4.591 ± 0.048	8.37 ± 0.09	16.9 ± 0.19	15.79 ± 0.15	4.93 ± 0.04
308.15 K	1.112 ± 0.011	1.342 ± 0.013	1.728 ± 0.017	2.693 ± 0.027	3.887 ± 0.04	7.04 ± 0.08	13.12 ± 0.15	13.19 ± 0.13	4.33 ± 0.03
313.15 K	1.015 ± 0.01	1.212 ± 0.012	1.523 ± 0.015	2.359 ± 0.023	3.372 ± 0.033	5.67 ± 0.06	10.81 ± 0.11	10.94 ± 0.1	3.79 ± 0.03
318.15 K	0.938 ± 0.009	1.096 ± 0.011	1.361 ± 0.013	2.071 ± 0.02	2.954 ± 0.028	5.03 ± 0.05	8.92 ± 0.09	9.32 ± 0.08	3.39 ± 0.03
323.15 K	0.878 ± 0.009	0.994 ± 0.01	1.245 ± 0.012	1.839 ± 0.017	2.557 ± 0.025	4.35 ± 0.04	7.55 ± 0.07	8.06 ± 0.07	3.04 ± 0.02

O=C(O)c1ccccc1O + CCCCO
viscosity [mPa·s]
Conditions	308.15 K	313.15 K	318.15 K	323.15 K
101 kPa, x1 = 0.14	2.453 ± 0.02	–	–	–
101 kPa, x1 = 0.173	2.656 ± 0.022	–	–	–
101 kPa, x1 = 0.193	2.761 ± 0.023	–	–	–
101.33 kPa, x1 = 0.14	2.453 ± 0.065	2.187 ± 0.058	1.951 ± 0.052	1.736 ± 0.046
101.33 kPa, x1 = 0.193	2.761 ± 0.074	2.375 ± 0.063	2.154 ± 0.057	1.928 ± 0.051

Nc1cccc(Cl)c1 + CCCCCCCCCCO
viscosity [mPa·s], 101 kPa
Conditions	x1 = 0.1699	x1 = 0.3153	x1 = 0.4411	x1 = 0.5511	x1 = 0.6481	x1 = 0.7342	x1 = 0.8112	x1 = 0.8805	x1 = 0.9431
303.15 K	8.772 ± 0.26	7.947 ± 0.24	7.247 ± 0.22	6.641 ± 0.21	6.113 ± 0.19	5.648 ± 0.18	5.238 ± 0.17	4.871 ± 0.16	4.546 ± 0.15
308.15 K	7.358 ± 0.22	6.71 ± 0.21	6.16 ± 0.19	5.687 ± 0.18	5.274 ± 0.17	4.912 ± 0.16	4.593 ± 0.15	4.31 ± 0.14	4.061 ± 0.14
313.15 K	6.213 ± 0.2	5.693 ± 0.18	5.254 ± 0.17	4.878 ± 0.16	4.549 ± 0.15	4.262 ± 0.14	4.01 ± 0.13	3.788 ± 0.13	3.596 ± 0.12
318.15 K	5.338 ± 0.17	4.899 ± 0.16	4.532 ± 0.15	4.217 ± 0.14	3.943 ± 0.13	3.704 ± 0.12	3.494 ± 0.12	3.311 ± 0.11	3.153 ± 0.11
